This passage reports Ratio and IC50 results from ChEMBL document CHEMBL1130304, “Hemisynthesis of rhazinilam analogues: structure - activity relationships on tubulin-microtubule system” (Bioorg Med Chem Lett, 1997).

Values joined by “and” are separate entries in the source; they are usually repeats but may differ in a detail not shown here. Equal entries are not always repeated. Active and inactive are the calls of the source. No cut-off for these calls is given here.

Assay [1] is described as follows: Compound was tested for relative activity against the cold-induced disassembly of microtubules with respect to rhazinilam (IC50=2*10e-6M); IA means Inactive. In kind it is functional.
The nature of assay [2]: Relative activity against the cold-induced disassembly of microtubules with respect to rhazinilam (IC50=2*10e-6M). In kind it is functional.
A short description of assay [3]: Inhibitory concentration of compound was determined against KB cells. In kind it is functional, cell-based, Homo sapiens.
Assay [4] is described as follows: Inhibitory concentration of compound was determined against KB cells; IA means Inactive. It is filed as functional, cell-based, Homo sapiens.
A short description of assay [5]: Inhibitory concentration of compound was determined against disassembly of microtubules. It is filed as functional.
A short description of assay [6]: Compound was tested for relative activity against the cold-induced disassembly of microtubules. In kind it is functional.
The nature of assay [7]: Compound was tested for relative activity against the cold-induced disassembly of microtubules; IA means Inactive. It is filed as functional.
Assay [8] is described as follows: Compound was tested for relative activity against the cold-induced disassembly of microtubules with respect to rhazinilam (IC50=2*10e-6M); Experiment 1. In kind it is functional.
A short description of assay [9]: Compound was tested for relative activity against the cold-induced disassembly of microtubules with respect to rhazinilam (IC50=2*10e-6M); Experimemt 2. It is filed as functional.

Regarding `CC[C@]1(CCC(=O)O)CCCn2ccc(-c3ccccc3N)c21`, in assay [1], the Ratio entry was “inactive”.
Consider `CC[C@]12CCCn3c(C(=O)OCc4ccc(OC)c(OC)c4OC)cc(c31)-c1ccccc1NC(=O)CC2`, for which the Ratio in assay [2] is 7. In assay [3], this compound displayed a 50% inhibitory concentration (IC50) of 20 µM.
In the case of `CC[C@]12CCCn3ccc(c31)-c1ccccc1N(CC(=O)O)C(=O)CC2`, the IC50 result in [4] was “Not Active”. Besides, the Ratio in [2] was 80.
Regarding `CC[C@]12CCCn3ccc(c31)-c1ccccc1NC(=O)CC2` [RHAZINILAM], the figures for the IC50 in [5] and in assay [3] were 2 µM and 0.5 µM, respectively. Moreover, the Ratio in assay [6] was 1. In addition, the Ratio entry in assay [7] was “inactive”.
In the case of `CC[C@@]12CCCN3CC[C@@]4(C(=Nc5ccccc54)CC1)[C@H]32`, the Ratio result in assay [1] is “inactive”.
Take `CC[C@]12CCCn3c(C(=O)C(F)(F)F)cc(c31)-c1ccccc1NC(=O)CC2`: in [2], the Ratio came to 4. In assay [3], this compound gave an IC50 of 15 µM.
The matching figures for `CC[C@@]12CCC(=O)Nc3ccccc3-c3ccn(c31)C(O)CC2` (stereo not given in full): 15 and 3 µM.
As for `CC[C@]12CCCn3c(C=O)cc(c31)-c1ccccc1NC(=O)CC2`, the Ratio in assay [2] was 6.
As to `CC[C@]12CCCn3ccc(c31)-c1ccccc1N(C(=O)OC(C)(C)C)C(=O)CC2`, in [4], the IC50 entry is “Not Active”. The Ratio in assay [2] is 80.
As to `CC[C@@]12CCCN3C(=O)C=C(c4ccccc4NC(=O)CC1)[C@]32O`, in [1], the Ratio entry was “inactive”.
With `CC[C@]12CCCn3c(C(=O)OC)cc(c31)-c1ccccc1NC(=O)CC2`, in assay [2], the Ratio was found to be 5. In assay [3], this compound came in with an IC50 of 4 µM.
Regarding `CC[C@@]12CCCN(C(C)=O)c3ccccc3-c3ccn(c31)CCC2`, the IC50 result in assay [4] is “Not Active”. For the same compound, the Ratio in [2] worked out at 80.
The corresponding values for `CC[C@]12CCCn3ccc(c31)-c1cc(Br)ccc1NC(=O)CC2` are “Not Active” and 100.
In the case of `CC[C@@]12CCCN3CC=C(c4ccccc4NC(=O)CC1)C32` (stereo not given in full), the Ratio entry in [1] is “inactive”.
Consider `CC[C@]12CCCn3c(C=O)c(C=O)c(c31)-c1ccccc1NC(=O)CC2`, for which the Ratio result in assay [1] was “inactive”.
`CC[C@]12CCCn3ccc(c31)-c1ccccc1/N=C(/S)CC2`: the Ratio in assay [2] amounted to 50. The same compound had an IC50 in assay [3] of 10 µM.
`CC[C@]12CCCn3ccc(c31)-c1ccccc1N(C)C(=O)CC2`: the Ratio in [2] amounted to 4. This compound also showed an IC50 in assay [3] of 60 µM.
For the compound `CC[C@]12CCCn3ccc(c31)-c1cc(NC(C)=O)ccc1NC(=O)CC2`, the IC50 result in assay [4] is “Not Active”. Besides, the Ratio entry in assay [1] is “inactive”.
On to `CC[C@]12CCCn3ccc(c31)-c1ccccc1N(CC(=O)OCc1ccccc1)C(=O)CC2`, for which the IC50 entry in assay [4] was “Not Active”. For the same compound, in [2], the Ratio is 80.
On to `CC[C@@]12CCCNc3ccccc3-c3ccn(c31)CCC2`, for which the Ratio in assay [2] amounted to 20. The compound further gave an IC50 in [3] of 1 µM.
On to `CC[C@]12CCCn3c(C(=O)C(Cl)(Cl)Cl)cc(c31)-c1ccccc1NC(=O)CC2`, for which the Ratio in assay [2] was determined as 8. The compound further showed an IC50 in [3] of 25 µM.
Regarding `CC[C@@]12CCCN(C(=O)OC(C)(C)C)c3ccccc3-c3ccn(c31)CCC2`, the Ratio in assay [2] was 80. Besides, the 50% inhibitory concentration (IC50) in assay [3] was found to be 10 µM.
As for `CC[C@]12CCCn3c(C(=O)O)cc(c31)-c1ccccc1NC(=O)CC2`, the Ratio in assay [8] is 5; in [9], 2 and 3. The IC50 in assay [3] worked out at 75 µM.
`CC[C@@]12CCC(=O)Nc3ccccc3-c3ccn(c31)C(=O)CC2` [RHAZINICINE]: the Ratio in assay [2] was found to be 10. In addition, the IC50 in assay [3] turned out to be 3 µM.
